Data on 8 compounds can be found in patent US6441177B1 (Hoffmann-La Roche Inc., priority 1995, dated 2002).

In brackets after ≈: the same amount, converted by molar mass. Where two headings read alike, the source gives them in different places.

The target of test [1] is T1, human liver microsomal 2,3-oxidosqualene-lanosterol cyclase (OSC) (Homo sapiens, UniProt P48449).
T1 construct: Liver microsomes from a healthy volunteer were prepared in sodium phosphate buffer (pH 7.4); from tissue; host or cells: human liver microsomes from a healthy volunteer
T1 sequence (P48449 1-732): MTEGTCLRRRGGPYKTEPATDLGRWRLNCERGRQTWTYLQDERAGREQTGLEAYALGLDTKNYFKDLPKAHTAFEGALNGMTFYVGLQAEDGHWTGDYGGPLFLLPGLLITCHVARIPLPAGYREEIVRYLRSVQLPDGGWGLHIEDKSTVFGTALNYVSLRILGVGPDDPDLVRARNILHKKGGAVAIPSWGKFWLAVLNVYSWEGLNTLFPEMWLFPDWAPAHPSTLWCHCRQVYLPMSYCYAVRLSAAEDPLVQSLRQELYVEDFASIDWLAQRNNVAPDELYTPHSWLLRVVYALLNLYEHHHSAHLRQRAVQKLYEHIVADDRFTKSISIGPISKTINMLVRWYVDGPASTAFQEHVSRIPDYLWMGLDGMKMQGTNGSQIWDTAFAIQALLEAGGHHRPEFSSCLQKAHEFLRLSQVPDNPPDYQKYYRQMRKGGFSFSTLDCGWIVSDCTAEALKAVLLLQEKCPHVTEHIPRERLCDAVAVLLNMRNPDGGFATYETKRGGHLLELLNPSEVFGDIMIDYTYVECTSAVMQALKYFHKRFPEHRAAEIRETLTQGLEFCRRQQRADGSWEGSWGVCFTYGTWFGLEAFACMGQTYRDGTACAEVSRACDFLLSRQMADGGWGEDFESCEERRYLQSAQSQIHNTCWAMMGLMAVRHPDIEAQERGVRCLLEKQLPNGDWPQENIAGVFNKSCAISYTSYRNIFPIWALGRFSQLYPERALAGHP
The test is described as follows: Inhibition of human liver microsomal 2,3-oxidosqualene-lanosterol cyclase (OSC). Format: biochemical. The following applies: human liver microsomes; for IC50: concentration reducing conversion of MOS into lanosterol to 50% of control. The method, then:
Inhibition of Human Liver Microsomal 2,3-Oxidosqualene-lanosterol Cyclase (OSC)
Liver microsomes from a healthy volunteer were prepared in sodium phosphate buffer (pH 7.4). The OSC activity was measured in the same buffer which also contained 1 mM EDTA and 1 mM dithiothreitol. The microsomes were diluted to 0.8 mg/ml protein in cold phosphate buffer. Dry [^14C]R,S-monooxidosqualene (MOS; 12.8 mCi/mmol) was diluted to 20 nCi/μl with ethanol and mixed with phosphate buffer-1% BSA (Bovine Serum Albumin). A stock solution of 1 mM test substance in DMSO was diluted to the desired concentration with phosphate buffer-1% BSA. 40 μl of microsomes were mixed with 20 μl of the solution of the test substance and the reaction was subsequently started with 20 μl of the [^14C]R,S-MOS solution. The final conditions were: 0.4 mg/ml of microsomal proteins and […] of [^14C]R,S-MOS in phosphate buffer, pH 7.4, containing 0.5% albumin, DMSO <0.1% and ethanol <2%, in a total volume of 80 μl.
After 1 hour at 37° C. the reaction was stopped by the addition of 0.6 ml of 10% KOH-methanol, 0.7 ml of water and 0.1 ml of hexane:ether (1:1, v/v) which contained 25 μg of non-radioactive MOS and 25 μg of lanosterol as the carrier. After shaking 1 ml of hexane:ether (1:1, v/v) was added to each test tube, these were again shaken and then centrifuged. The upper phase was transferred into a glass test tube, the lower phase was again extracted with hexane:ether and combined with the first extract. The entire extract was evaporated to dryness with nitrogen and the residue was suspended in 50 μl of hexane:ether and applied to a silica gel plate. Chromatographic separation was effected in hexane:ether (1:1, v/v) as the eluent. […] After drying radioactive MOS and lanosterol were observed on the silica gel plate. The ratio of MOS to lanosterol was determined from the radioactive bands in order to determine the OSC inhibition.
The test was carried out on the one hand with a constant test substance concentration of 100 nM and the percentage OSC inhibition against controls was calculated. In addition, the test was carried out with different test substance concentrations and subsequently the IC50 value was calculated, i.e. the concentration required to reduce the conversion of MOS into lanosterol to 50% of the control value.
(Liver microsomes are a subcellular fraction often used to study metabolism.)

The next test has as its system plasma cholesterol. The test is described as follows: Cholesterol lowering in fat-fed hamsters. Format: in vivo. The following applies: fat-fed male golden hamsters, treated 10 days, 200 μmol (about 70-120 mg/kg/ay) in diet, percent of the control animals. The method, then:
Cholesterol Lowering in Fat-fed Hamsters. Male golden hamsters kept individually were pre-treated for 7 days with a diet containing grated coconut (40 cal. % fat). The animals were then divided into groups each comprising 5 animals. During the treatment the animals were maintained on the same diet. Each test substance was firstly homogenized in 9 ml of water and subsequently mixed with the milled diet. The controls received only feed converted into a paste with water. The animals were treated for 10 days with a test substance dosage of 200 μmol (about 70-120 mg/kg/ay). Blood samples (200 μl) were removed via the jugular vein under light anaesthesia on the last day of the pre-treatment and one day after the last administration of test substance. The plasma cholesterol concentration was determined using a calorimetric enzyme method. The plasma lipoproteins were separated by exclusion chromatography ([…] et al., Science Tools, 36, 1992, 10-12). The total cholesterol was determined in each fraction using a fluorometric enzyme method (Gamble et al., J. Lipid Res., 19, 1978, 1068-1071) in order to calculate the amount of cholesterol in the LDL and HDL fractions. The activity on plasma cholesterol and LDL and HDL cholesterol, expressed in percent of the control animals, for the products of Examples 8a and 12 is reproduced in the following Table: […]

The subject of the next test is Aspergillus fumigatus. The experiment in a line: Antifungal activity in vitro, microdilution method. The following applies: growth inhibition, incubation at 27° C. for 48 hours, read-out: IC50 (mg/ml) for: A. fumigatus after: 48 hours. Format: cell-based. The method, then:
(§1) Antifungal Activity In Vitro The compounds were tested for antifungal activity against Candida albicans, Cryptococcus neoformans and Aspergillus fumigatus using a microdilution method on microtitre plates (96 wells per plate). Yeast supplemented with 1% glucose and 0.25% di-potassium phosphate was used for the three fungal strains. The fungal cells were inoculated at 3×10^4 CFU (Colony Forming Unit) in […] of medium per well. The medium contained increasing concentrations of test substance. After incubation at 27° C. for 24 or 48 hours the turbidity in each well was measured by a microtitre plate reader. The growth inhibition was calculated in comparison to a control (without test substance). The IC50 value given in the following Table is the concentration of test substance at which the growth is inhibited by 50%.
For orientation: Broth dilution looks for growth in wells or tubes with falling amounts of substance.

In the next test the test system is Candida albicans. The experiment in a line: Antifungal activity in vitro, microdilution method. The following applies: growth inhibition. The class given is cell-based. The method, then: as §1
A further test relates to Cryptococcus neoformans. The experiment in a line: Antifungal activity in vitro, microdilution method. The class given is cell-based. As to conditions: growth inhibition, incubation at 27° C. for 48 hours, read-out: IC50 (mg/ml) for: C. neoformans after: 48 hours. The method, then: as §1
Setting [2] is: constant test substance concentration of 100 nM, 1 hour at 37° C., against controls.
The mark [3] stands for this setting: incubation at 27° C. for 24 hrs., read-out: IC50 (mg/ml) for: C. albicans after: 24 hrs.
[4] abbreviates: incubation at 27° C. for 48 hrs., read-out: IC50 (mg/ml) for: C. albicans after: 48 hrs.

`C=CCN(C)C/C=C/COc1ccc(C(C)(O)c2ccc(Br)cc2)cc1` (racemic) [Example 8a, (E)-(RS)-1-[4-[4-(allyl-methyl-amino)-but-2-enyloxy]-phenyl]-(4-bromo-phenyl)-ethanol] returned an IC50 in test [1] of 18 nM. In addition, the “Inhibition of OSC (%)” value in test [1] (setting [2]) amounted to 82%. Moreover, in the test with plasma cholesterol, the HDL cholesterol is −18%, the LDL cholesterol was −51% and the Total cholesterol is −30%.
In test [1], `CN(C/C=C/COc1ccc(C(=O)c2ccc(Br)cc2)cc1)C1CC1` [Example 12, (E)-(4-bromo-phenyl)-[4-[4-(cyclopropyl-methyl-amino)-but-2-enyloxy]-phenyl]-methanone] had an IC50 of 19 nM. This compound also yielded an inhibition at 0.1 µM in test [1] (setting [2]) of 84%. Further, in the test on plasma cholesterol, the HDL cholesterol is listed as −23%, the LDL cholesterol is reported as −54% and the Total cholesterol is −25%.
As for `C=CCN(C)C/C=C/COc1ccc(C(=O)/C=C/C=C(C)C)cc1F` [Example 25, (E)-1-[4-[(E)-4-(allyl-methyl-amino)-but-2-enyloxy]-3-fluoro-phenyl]-5-methyl-hexa-2,4-dien-1-one], the IC50 in the test with Aspergillus fumigatus is 0.00082 mg/mL (≈ 2.39 µM); in the test on Candida albicans (setting [3]), 0.00032 mg/mL (≈ 0.932 µM); with Candida albicans (setting [4]), less than 0.00032 mg/mL; with Cryptococcus neoformans, 0.001 mg/mL (≈ 2.91 µM).
With `C=CCN(C)C/C=C/COc1ccc(C(=O)/C=C/C=C(C)C)cc1` [Example 26c, (E)-1-[4-[(E)-4-(allyl-methyl-amino)-but-2-enyloxy]-phenyl]-5-methyl-hexa-2,4-dien-1-one], the IC50 with Aspergillus fumigatus came out at 0.0084 mg/mL (≈ 25.8 µM); with Candida albicans (setting [3]), 0.00049 mg/mL (≈ 1.51 µM); in the test with Candida albicans (setting [4]), 0.0057 mg/mL (≈ 17.5 µM); with Cryptococcus neoformans, 0.0027 mg/mL (≈ 8.3 µM).
As to `C=CCN(C)C/C=C/CNc1ccc(C(=O)c2ccc(Br)cc2)cc1F` [Example 29], the IC50 in test [1] is 4.5 nM; in the test with Aspergillus fumigatus, 0.00071 mg/mL (≈ 1.7 µM); with Candida albicans (setting [3]), 0.00071 mg/mL (≈ 1.7 µM); with Candida albicans (setting [4]), 0.021 mg/mL (≈ 50.3 µM); with Cryptococcus neoformans it was less than 0.00032 mg/mL. For the same compound, the inhibition at 0.1 µM in test [1] (setting [2]) is 91%.
As to `C=CCN(C)CCCCCCOc1ccc(C(=O)c2ccc(Br)cc2)c(N)c1` [Example 36, [2-amino-4-[6-(allyl-methyl-amino)-hexyloxy]-phenyl]-(4-bromo-phenyl)-methanone], the IC50 in test [1] was 8.9 nM; with Aspergillus fumigatus, 0.0024 mg/mL (≈ 5.39 µM); with Candida albicans (setting [3]) it was less than 0.00032 mg/mL; in the test on Candida albicans (setting [4]), 0.0011 mg/mL (≈ 2.47 µM); in the test on Cryptococcus neoformans, less than 0.00032 mg/mL. For the same compound, in test [1] (setting [2]), testing at 0.1 µM gave an inhibition of 92%.
`C=CCN(C)CCCCCCOc1ccc(C(=O)c2ccc(Br)cc2)nc1` [Example 43b, [5-[6-(allyl-methyl-amino)-hexyloxy]-pyridin-2-yl]-(4-bromo-phenyl)-methanone]: the IC50 with Aspergillus fumigatus is 0.0064 mg/mL (≈ 14.8 µM); in the test with Candida albicans (setting [3]), less than 0.00032 mg/mL; with Candida albicans (setting [4]), 0.005 mg/mL (≈ 11.6 µM); in the test with Cryptococcus neoformans, less than 0.00032 mg/mL.
On to `C=CCN(C)C/C=C(\C)CC/C=C(\C)CCC(=O)CCC=C(C)C` [Example 54b, (9E,13E)-15-(allyl-methyl-amino)-2,9,13-trimethyl-pentadeca-2,9,13-trien-6-one], for which the inhibition at 0.1 µM in test [1] (setting [2]) was 73%. Besides, the IC50 with Aspergillus fumigatus is 0.0061 mg/mL (≈ 18.4 µM); in the test on Candida albicans (setting [3]) it was less than 0.00032 mg/mL; in the test with Candida albicans (setting [4]), 0.0065 mg/mL (≈ 19.6 µM); in the test on Cryptococcus neoformans, 0.00069 mg/mL (≈ 2.08 µM).

The term inhibition denotes the drop in the measured response relative to a control, in per cent. Lower therefore signals little suppression.
